Assay results taken from patent US20030181520A1, “Methods of reversing and preventing cardiovascular pathologies” (priority 2001, published 2003).

Assays:
[1] = tested on: reference vessels (coronary arteries that were not targets of angioplasty); experiment: Clinical trial: IVUS analysis of lumen volume of reference vessels (non-PCI site); assay type: in vivo, human; conditions: for lumen volume change of reference vessels: IVUS, non-PCI site
Description: (§1) The primary endpoint of the trial was the size of the lumenal area (coronary artery opening), as measured by intravascular ultrasound (IVUS), six months after angioplasty. […] Angiographic restenosis was also assessed using a standard definition of restenosis as measured by quantitative coronary angiography (QCA). […] An IVUS analysis of reference vessels (blood vessels of coronary arteries that were not targets of angioplasty procedures) was also carried out. The data indicated lumen volumes increased for patients who received either of the top two doses of Compound A. In contrast, patients on placebo had decreased lumen volumes, consistent with the expected progression of atherosclerosis.
(§2) IVUS examinations were conducted at 30 Mhz using 3.5 French CVIS catheters. All IVUS examinations were preceded by IC Ntg 0.3 mg. Results of these examinations are found in FIGS. 1-6.

[2] = tested on: coronary artery opening at the site of angioplasty; experiment: Clinical trial: minimal luminal area by intravascular ultrasound (IVUS) six months after angioplasty; assay type: in vivo, human; conditions: for mean minimal luminal area: IVUS six months after angioplasty
Description: as §1
A study was conducted to determine whether Compound A reduces restenosis as assessed by intravascular ultrasound (IVUS) when administered for 2 weeks before and 4 weeks after percutaneous coronary intervention (PCI) with or without stent placement. A multi-center, double-blind placebo-controlled randomized trail with 5 treatment groups:
(§3) Treatment of the above was given 2 weeks prior to and 4 weeks after PCI. PCI was performed on greater than or equal to 1 native artery with greater than or equal to 1 de novo lesion of greater than or equal to 50%. All PCI procedures (with or without stent placement) and post-PCI management were performed according to recognized current clinical practice. 0.3 mg of nitroglycerin(Ntg) intracoronary (IC) were administered at every angiogram. Quantitative Coronary Angiography (QCA) measurements were taken prior to-PCI, 10 minutes post-PCI, and final follow-up (approximately 6 months).
as §2

VCAM-1 = VCAM-1 gene expression inhibition; assay type: cell-based; conditions: compound A at low micromolar concentrations, probucol at very high concentrations
MCP-1 = MCP-1 gene expression inhibition; assay type: cell-based; conditions: compound A at low micromolar concentrations, probucol at very high concentrations
stented arteries = experiment: Clinical trial: angiographic restenosis by quantitative coronary angiography (QCA); assay type: in vivo, human; conditions: for restenosis rate reduction: relative to placebo (37.5 percent); for rate of angiographic restenosis in stented arteries: QCA; for restenosis after PCI: treatment 2 weeks before and 4 weeks after PCI
Description: as §1, §3

QTc interval = experiment: Clinical trial: QTc interval; assay type: in vivo, human
[3] = Anti-inflammatory activity (preclinical comparison)
[4] = Antioxidant activity (preclinical comparison)

Compound | lumen volume change of reference vessels ([1]; probucol 500 mg twice a day) | mean minimal luminal area ([2]; probucol 500 mg twice a day for six weeks) | inhibition of VCAM-1 gene expression (VCAM-1) | inhibition of MCP-1 gene expression (MCP-1) | restenosis rate reduction (stented arteries; probucol 500 mg twice a day) | rate of angiographic restenosis in stented arteries (stented arteries; probucol 500 mg twice a day) | restenosis after PCI (stented arteries) | prolongation of the QTc interval (QTc interval) | lumen volume change of reference vessels ([1]; 70 mg once a day) | lumen volume change of reference vessels ([1]; 140 mg once a day) | lumen volume change of reference vessels ([1]; 280 mg once a day) | lumen dimensions of the reference segments ([1]; in contrast to probucol) | activity as an anti-inflammatory agent [3] | mean minimal luminal area ([2]; 70 mg once a day for six weeks) | mean minimal luminal area ([2]; 140 mg once a day for six weeks) | mean minimal luminal area ([2]; 280 mg once a day for six weeks, p<0.05 vs. placebo) | luminal area at the site of angioplasty ([2]; at two weeks, p<0.05) | antioxidant properties [4] | rate of angiographic restenosis in stented arteries (stented arteries; combined Compound A arms (70, 140, 280 mg once a day)) | restenosis rate reduction (stented arteries; combined Compound A arms)
CC(C)(Sc1cc(C(C)(C)C)c(O)c(C(C)(C)C)c1)Sc1cc(C(C)(C)C)c(O)c(C(C)(C)C)c1 [Probucol, probucol, reference compound] | −0.2 mm3 | 3.69 mm2 | inactive | inactive | 32% | 25.5% | reduce restenosis |  |  |  |  |  |  |  |  |  |  |  |  | 
CC(C)(Sc1cc(C(C)(C)C)c(O)c(C(C)(C)C)c1)Sc1cc(C(C)(C)C)c(OC(=O)CCC(=O)O)c(C(C)(C)C)c1 [Compound A, Butanedioic acid, mono [4-[[1-[[3,5-bis(1,1-dimethylethyl)-4-hydroxyphenyl]thio]-1-methylethyl]thio]2,6-bis(1,1-dimethylethyl)phenyl]ester] |  |  | very active inhibitor | very active inhibitor |  |  | reduce restenosis | without causing prolongation | −2.4 mm3 | +3.5 mm3 | +1.8 mm3 | surprising improvement | consistently very effective | 2.75 mm2 | 3.17 mm2 | 3.36 mm2 | dose response improvement | equipotent to probucol | 26.0% | 31%
